Reference: US20260176319A1, “PEPTIDE ANALOGS AND METHODS OF USING THE SAME” (Kallyope, Inc., priority 2024, published 2026)
pEC50: −log10 of the molar value. Starred links: 1 amine or outer side, 2 acyl side, 3 side chain; linkers in the order of their positions; H or OH if unused. Non-standard residues stand in square brackets, D forms with d. Residues, ends and D or L forms follow the SMILES beside them. *: point of attachment. Me3N+(CH2)2O(CH2)2O(CH2)2CO = C[N+](C)(C)CCOCCOCCC(=O)*; Trp(7-Me) = Cc1cccc2c(C[C@H](N)C(=O)O)c[nH]c12; C20 diacid = O=C(O)CCCCCCCCCCCCCCCCCCC(=O)*; d(γGlu) = O=C(O)[C@@H](CCC(=O)[*:2])N[*:1]; C18 diacid = O=C(O)CCCCCCCCCCCCCCCCC(=O)*; γGlu = O=C(O)[C@H](CCC(=O)[*:2])N[*:1]; NMeH = CN[C@@H](Cc1c[nH]cn1)C(=O)O; 3Pal = N[C@@H](Cc1cccnc1)C(=O)O; X2 = O=C(CC1(N[*:1])CC1)[*:2]; Nle = CCCC[C@H](N)C(=O)O; β3hA = C[C@H](N)CC(=O)O; Dap = NC[C@H](N)C(=O)O; AEEA = NCCOCCOCC(=O)O; βAla = NCCC(=O)O; Sar = CNCC(=O)O

Biological target: T1, human GRP receptors (Homo sapiens, UniProt P30550)
T1 construct: host or cells: U2OS
Experiment: IP1 GRPR activity: HTRF IP1-Gq assay in U2OS cells stably expressing human GRP receptors
Type: cell-based
Settings: 90 minutes incubation, read-out: hIP1 GRPR EC50
Description: U2OS cells stably expressing human GRP receptors (DiscoverX, #93-0229C3) were cultured according to manufacturer's instructions. Cells were cultured to […], then collected using AccuTase (Innovative Cell Technologies, #AT104). Cells were washed and plated on a poly-D-lysine-coated 384-well plate (ThermoFisher, #A3890401) at a density of 2,500 cells/well in […] assay buffer (AssayComplete Cell Plating 5 Reagent, DiscoverX #93-0563R5), then incubated overnight at 37° C. and 5% C02. The following morning, a homogenous time-resolved fluorescence (HTRF) assay was performed in a 384-well plate format using the IP1-Gq assay kit (Cisbio, 62IPAPEB). Test compounds were made as a stock in DMSO, then serially diluted to generate 10-point dose response curves in IP1 stimulation buffer. Five microliters of the prepared compounds were then added to the plate containing cells and assay buffer in duplicate, and the cells were incubated at 37° C. and 5% CO2 for 90 minutes. Following compound incubation, […] of IP1 lysis/detection buffer (prepared according to manufacturer's instructions) was added to each well, and the plates were incubated at room temperature for 1 hour. HTRF signals were measured using a plate reader (ClarioSTAR), calculating the ratio between emissions at 665 nm and 620 nm (HTRF ratio). HTRF ratio for positive (Max, […]; SEQ ID NO. 45) and negative (Min, DMSO) controls were used to normalize HTRF data and generate values for % activity. EC50 and Max activity values were determined using a standard 4-parameter fit using GraphPad Prism.

T1 sequence (P30550 whole entry): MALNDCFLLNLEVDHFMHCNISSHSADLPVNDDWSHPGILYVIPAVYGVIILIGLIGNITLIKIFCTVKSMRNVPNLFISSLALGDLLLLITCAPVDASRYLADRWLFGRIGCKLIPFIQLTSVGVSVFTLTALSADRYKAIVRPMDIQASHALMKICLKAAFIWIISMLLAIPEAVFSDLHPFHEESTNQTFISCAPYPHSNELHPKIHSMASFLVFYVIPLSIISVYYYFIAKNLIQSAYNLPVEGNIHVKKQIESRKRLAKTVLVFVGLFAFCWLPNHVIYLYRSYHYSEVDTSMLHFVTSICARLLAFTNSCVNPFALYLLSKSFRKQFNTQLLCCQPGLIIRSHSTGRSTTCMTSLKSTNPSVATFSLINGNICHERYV

SMILES | pEC50
CC(C)C[C@H](NC(=O)[C@H](Cc1c[nH]cn1)NC(=O)[C@@H](C)NC(=O)[C@@H](NC(=O)[C@H](C)NC(=O)[C@H](Cc1c[nH]c2ccccc12)NC(=O)[C@H](Cc1c[nH]cn1)NC(=O)[C@H](CC(N)=O)NC(=O)CNC(=O)COCCOCCNC(=O)COCCOCCNC(=O)CC[C@@H](NC(=O)CCCCCCCCCCCCCCCCC(=O)O)C(=O)O)C(C)C)C(=O)N[C@@H](CCCNC(=N)N)C(N)=O [Peptide 69, Octadecanedioyl-D-γGlu-OEG-OEG-Gly-Asn-His-Trp-Ala-Val-D-Ala-His-Leu-Arg-NH2] ({C18 diacid-d(γGlu)-AEEA-AEEA}-GNHWAV[dA]HLR-NH2) | < 5.00
CCCC[C@H](NC(=O)[C@H](CC(C)C)NC(=O)[C@H](Cc1cnc[nH]1)N(C)C(=O)C[C@H](C)NC(=O)[C@@H](NC(=O)[C@H](C)NC(=O)[C@H](Cc1c[nH]c2c(C)cccc12)NC(=O)[C@H](Cc1c[nH]cn1)NC(=O)[C@H](CCC(N)=O)NC(=O)CNC(=O)COCCOCCNC(=O)COCCOCCNC(=O)CC[C@H](NC(=O)CC[C@H](NC(=O)CCCCCCCCCCCCCCCCCCC(=O)O)C(=O)O)C(=O)O)C(C)C)C(N)=O [Peptide 270, Eicosanedioyl-γGlu-γGlu-OEG-OEG-Gly-Gln-His-7MeTrp-Ala-Val-BABA-NMeHis-Leu-Nle-NH2] ({C20 diacid-γGlu-γGlu-AEEA-AEEA}-GQH[Trp(7-Me)]AV[β3hA][NMeH]L[Nle]-NH2) | 8.42
CCCC[C@H](NC(=O)[C@H](CC(C)C)NC(=O)[C@H](Cc1c[nH]cn1)NC(=O)[C@@H](C)NC(=O)[C@@H](NC(=O)[C@@H](C)NC(=O)[C@H](Cc1c[nH]c2ccccc12)NC(=O)[C@H](Cc1c[nH]cn1)NC(=O)[C@H](CC(=O)O)NC(=O)CNC(=O)COCCOCCNC(=O)COCCOCCNC(=O)CC[C@H](NC(=O)CCCCCCCCCCCCCCCCC(=O)O)C(=O)O)C(C)C)C(N)=O [Peptide 139, Octadecanedioyl-γGlu-OEG-OEG-Gly-Asp-His-Trp-D-Ala-Val-D-Ala-His-Leu-Nle-NH2] ({C18 diacid-γGlu-AEEA-AEEA}-GDHW[dA]V[dA]HL[Nle]-NH2) | < 5.00
CCCC[C@H](NC(=O)[C@H](CC(C)C)NC(=O)[C@H](Cc1c[nH]cn1)NC(=O)CCNC(=O)[C@@H](NC(=O)[C@H](C)NC(=O)[C@H](Cc1c[nH]c2ccccc12)NC(=O)[C@H](Cc1c[nH]cn1)NC(=O)[C@H](CNC(=O)CCOCCOCC[N+](C)(C)C)NC(=O)CNC(=O)COCCOCCNC(=O)COCCOCCNC(=O)CC[C@H](NC(=O)CCCCCCCCCCCCCCCCCCC(=O)O)C(=O)O)C(C)C)C(N)=O [Peptide 262, Eicosanedioyl-γGlu-OEG-OEG-Gly-Dap(2CE-PEG-TMEA)-His-Trp-Ala-Val-β-Ala-His-Leu-Nle-NH2] ({C20 diacid-γGlu-AEEA-AEEA}-G[Dap](Me3N+(CH2)2O(CH2)2O(CH2)2CO)HWAV[βAla]HL[Nle]-NH2) | 8.40
CCCC[C@H](NC(=O)[C@H](CC(C)C)NC(=O)[C@H](Cc1c[nH]cn1)NC(=O)[C@@H](C)NC(=O)[C@@H](NC(=O)[C@H](C)NC(=O)[C@H](Cc1c[nH]c2ccccc12)NC(=O)[C@H](Cc1c[nH]cn1)NC(=O)[C@H](CC(N)=O)NC(=O)[C@H](CCCNC(=N)N)NC(=O)COCCOCCNC(=O)COCCOCCNC(=O)CC[C@H](NC(=O)CCCCCCCCCCCCCCCCC(=O)O)C(=O)O)C(C)C)C(=O)O [Peptide 156, Octadecanedioyl-γGlu-OEG-OEG-Arg-Asn-His-Trp-Ala-Val-D-Ala-His-Leu-Nle] ({C18 diacid-γGlu-AEEA-AEEA}-RNHWAV[dA]HL[Nle]-OH) | 6.45
CCCC[C@H](NC(=O)[C@H](CC(C)C)NC(=O)[C@H](Cc1c[nH]cn1)NC(=O)[C@@H](C)NC(=O)[C@@H](NC(=O)[C@H](C)NC(=O)[C@H](Cc1c[nH]c2ccccc12)NC(=O)[C@H](Cc1c[nH]cn1)NC(=O)[C@H](CC(N)=O)NC(=O)CNC(=O)COCCOCCNC(=O)COCCOCCNC(=O)CC[C@H](NC(=O)CCCCCCCCCCCCCCCCC(=O)O)C(=O)O)C(C)C)C(=O)N[C@@H](CCCNC(=N)N)C(N)=O [Peptide 114, Octadecanedioyl-γGlu-OEG-OEG-Gly-Asn-His-Trp-Ala-Val-D-Ala-His-Leu-Nle-Arg-NH2] ({C18 diacid-γGlu-AEEA-AEEA}-GNHWAV[dA]HL[Nle]R-NH2) | < 5.00
CCCC[C@H](NC(=O)[C@H](CC(C)C)NC(=O)[C@H](Cc1c[nH]cn1)NC(=O)[C@@H](C)NC(=O)[C@@H](NC(=O)[C@H](C)NC(=O)[C@H](Cc1c[nH]c2ccccc12)NC(=O)[C@H](Cc1cccnc1)NC(=O)[C@H](CC(N)=O)NC(=O)CNC(=O)COCCOCCNC(=O)COCCOCCNC(=O)CC[C@@H](NC(=O)CCCCCCCCCCCCCCCCC(=O)O)C(=O)O)C(C)C)C(=O)N(C)CC(N)=O [Peptide 72, Octadecanedioyl-D-γGlu-OEG-OEG-Gly-Asn-3Pal-Trp-Ala-Val-D-Ala-His-Leu-Nle-Sar-NH2] ({C18 diacid-d(γGlu)-AEEA-AEEA}-GN[3Pal]WAV[dA]HL[Nle][Sar]-NH2) | 5.98
CCCC[C@H](NC(=O)[C@H](CC(C)C)NC(=O)[C@H](Cc1c[nH]cn1)NC(=O)CCNC(=O)[C@@H](NC(=O)[C@H](C)NC(=O)[C@H](Cc1c[nH]c2c(C)cccc12)NC(=O)[C@H](Cc1c[nH]cn1)NC(=O)[C@H](CCCNC(=N)N)NC(=O)CNC(=O)[C@H](CO)NC(=O)COCCOCCNC(=O)COCCOCCNC(=O)CC[C@H](NC(=O)CC[C@H](NC(=O)CCCCCCCCCCCCCCCCCCC(=O)O)C(=O)O)C(=O)O)C(C)C)C(N)=O [Peptide 256, Eicosanedioyl-γGlu-Glu-OEG-OEG-Ser-Gly-Arg-His-7MeTrp-Ala-Val-β-Ala-His-Leu-Nle-NH2] ({C20 diacid-γGlu-γGlu-AEEA-AEEA}-SGRH[Trp(7-Me)]AV[βAla]HL[Nle]-NH2) | 8.43
CCCC[C@H](NC(=O)[C@H](CC(C)C)NC(=O)[C@H](Cc1c[nH]cn1)NC(=O)[C@@H](C)NC(=O)[C@@H](NC(=O)[C@@H](C)NC(=O)[C@H](Cc1c[nH]c2ccccc12)NC(=O)[C@H](Cc1c[nH]cn1)NC(=O)[C@H](CC(N)=O)NC(=O)CNC(=O)COCCOCCNC(=O)COCCOCCNC(=O)CC[C@H](NC(=O)CCCCCCCCCCCCCCCCC(=O)O)C(=O)O)C(C)C)C(=O)N(C)CC(N)=O [Peptide 115, Octadecanedioyl-γGlu-OEG-OEG-Gly-Asn-His-Trp-D-Ala-Val-D-Ala-His-Leu-Nle-Sar-NH2] ({C18 diacid-γGlu-AEEA-AEEA}-GNHW[dA]V[dA]HL[Nle][Sar]-NH2) | < 5.00
CCCC[C@H](NC(=O)[C@H](CC(C)C)NC(=O)[C@H](Cc1c[nH]cn1)NC(=O)[C@@H](C)NC(=O)[C@@H](NC(=O)[C@H](C)NC(=O)[C@H](Cc1c[nH]cn1)NC(=O)[C@H](Cc1c[nH]cn1)NC(=O)[C@H](CCCNC(=N)N)NC(=O)CNC(=O)COCCOCCNC(=O)COCCOCCNC(=O)CC[C@H](NC(=O)CCCCCCCCCCCCCCCCC(=O)O)C(=O)O)C(C)C)C(N)=O [Peptide 116, Octadecanedioyl-γGlu-OEG-OEG-Gly-Arg-His-His-Ala-Val-D-Ala-His-Leu-Nle-NH2] ({C18 diacid-γGlu-AEEA-AEEA}-GRHHAV[dA]HL[Nle]-NH2) | < 5.00
CCCC[C@H](NC(=O)[C@H](CC(C)C)NC(=O)[C@H](Cc1c[nH]cn1)NC(=O)[C@@H](C)NC(=O)[C@@H](NC(=O)[C@H](C)NC(=O)[C@H](CCCNC(=N)N)NC(=O)[C@H](Cc1c[nH]cn1)NC(=O)[C@H](CC(N)=O)NC(=O)CNC(=O)COCCOCCNC(=O)COCCOCCNC(=O)CC[C@H](NC(=O)CCCCCCCCCCCCCCCCC(=O)O)C(=O)O)C(C)C)C(N)=O [Peptide 108, Octadecanedioyl-γGlu-OEG-OEG-Gly-Asn-His-Arg-Ala-Val-D-Ala-His-Leu-Nle-NH2] ({C18 diacid-γGlu-AEEA-AEEA}-GNHRAV[dA]HL[Nle]-NH2) | < 5.00
CCCC[C@H](NC(=O)[C@H](CC(C)C)NC(=O)[C@H](Cc1c[nH]cn1)NC(=O)[C@@H](C)NC(=O)[C@@H](NC(=O)[C@H](C)NC(=O)[C@H](Cc1c[nH]cn1)NC(=O)[C@H](Cc1c[nH]cn1)NC(=O)[C@H](CC(N)=O)NC(=O)CNC(=O)COCCOCCNC(=O)COCCOCCNC(=O)CC[C@@H](NC(=O)CCCCCCCCCCCCCCCCC(=O)O)C(=O)O)C(C)C)C(N)=O [Peptide 68, Octadecanedioyl-D-γGlu-OEG-OEG-Gly-Asn-His-His-Ala-Val-D-Ala-His-Leu-Nle-NH2] ({C18 diacid-d(γGlu)-AEEA-AEEA}-GNHHAV[dA]HL[Nle]-NH2) | < 5.00
CCCC[C@H](NC(=O)[C@H](CC(C)C)NC(=O)[C@H](Cc1c[nH]cn1)NC(=O)CC1(NC(=O)[C@@H](NC(=O)[C@H](C)NC(=O)[C@H](Cc2c[nH]c3ccccc23)NC(=O)[C@H](Cc2c[nH]cn2)NC(=O)[C@H](CCC(N)=O)NC(=O)CNC(=O)COCCOCCNC(=O)COCCOCCNC(=O)CC[C@H](NC(=O)CC[C@H](NC(=O)CCCCCCCCCCCCCCCCCCC(=O)O)C(=O)O)C(=O)O)C(C)C)CC1)C(N)=O [Peptide 272, Eicosanedioyl-γGlu-γGlu-OEG-OEG-Gly-Gln-His-Trp-Ala-Val-ACPA-His-Leu-Nle-NH2] ({C20 diacid-γGlu-γGlu-AEEA-AEEA}-GQHWAV[X2]HL[Nle]-NH2) | 8.22
